Reference: patent publication US20080026362A1, “Three-dimensional culture containing human articular chondrocytes with induced terminal differentiation changes, and preparation process and uses of the same” (Kaohsiung Medical University, priority 2006, published 2008)

What was measured:
Assay type in all cases: cell-based
ALP gene = experiment: Quantitative real-time PCR, mRNA expression of ALP in human articular chondrocytes (KMU-AC); conditions: normalized to GAPDH, control Day 3 = 100%, mean ± S.E.M.
Procedure: (§1) The alginate beads were prepared with reference to C. Sanchez et al. (2002), J. Rheumatol, 29:772-82. Briefly, the above-described human articular chondrocyte cultures were suspended in a 1.2% alginate solution in 0.9% NaCl, so as to form a cell suspension at a density of 1×10^6 cells/mL. The cell suspension was then slowly dropped into a 102 mM CaCl2 solution through a yellow pipette tip, to result in the formation of alginate beads entrapping the human articular chondrocytes. The thus-formed alginate beads were allowed to polymerize for further 10 minutes in the CaCl2 solution at room temperature.
(§2) After washing with saline solution, 15 alginate beads were cultivated in 5 ml of culture medium per well in a 6-well plate. Culture medium was the Chondrocyte basal medium (Bulletkit, Clonic®; BioWhittaker, Walkersville, Md.) with a supplement of the Chondrocyte growth medium, containing R3-IGF1, bFGF, transferrin, insulin, fetal bovine serum and gentamicin/amphotericin-B (SingleQuots, Clonic®; BioWhittaker, Walkersville, Md.). […]
(§3) The NHAC-kn cultures were used in the following experiments except the quantitative real-time polymerase chain reaction (quantitative real-time PCR). The KMU-AC cultures were used to quantify mRNA expression by quantitative real-time PCR, which was performed to further confirm the effect of Aza-C on gene expression of human articular chondrocytes.
(§4) Quantitative real-time PCR was also performed to further confirm the finding from RT-PCR. On Day 3, 7 and 14 after a 48 hr Aza-C treatment, the mRNA expressions of type II and type X collagens and ALP of Aza-C treated and control cells were measured. […]
(§5) The quantitative real-time PCR was performed in an ABI Prism 7900 HT Sequence Detection System (Applied Biosystems, Foster City, Calif.) using the SYBR Green PCR Master Mix Reagent containing the Amplitag Gold DNA polymerase, dNTP mixed with dUTP, SYBR Green 1, passive reference and reaction buffer (Applied Biosystems, Foster City, Calif.). […]

collagen type II gene [1] = experiment: RT-PCR, mRNA expression of collagen type II in alginate-bead human articular chondrocytes (NHAC-kn); conditions: p<0.01
Procedure: as §1
(§6) After washing with saline solution, 15 alginate beads were cultivated in 5 ml of culture medium per well in a 6-well plate. […]
as §3
(§7) On Day 3, 7 and 14 after a 48 hr Aza-C treatment, expressions of the mRNA of type II and type X collagens and alkaline phosphatase (ALP) of Aza-C-treated and non-treated cells (control) were measured by RT-PCR. […]

[2] = system: alkaline phosphatase (ALP) gene; experiment: RT-PCR, mRNA expression of alkaline phosphatase in alginate-bead human articular chondrocytes (NHAC-kn); conditions: p<0.01
Procedure: as §1, §6, §3, §7

[3] = system: human articular chondrocytes; experiment: Flow cytometry, cell size of articular chondrocytes; conditions: Day 14 after 48 hr 15 μg/mL Aza-C, NHAC-kn
Procedure: (§8) The cultivated alginate beads as described above were treated with 15 μg/mL of 5-azacytidine (Sigma, St Louis, Mo.) for 48 hours. Thereafter, they were maintained in media without Aza-C for another 2 weeks. Cells were harvested on Day 3, 7 and 14 after Aza-C treatment, respectively. The control cultures were cultivated and harvested under the same conditions except that the treatment of Aza-C was omitted.
(§9) Human articular chondrocytes were released from the alginate beads by dissolving the beads in a 0.9% NaCl solution containing 0.05M sodium citrate and 0.03M sodium EDTA at pH 7.4. Cells for each experiment were collected by low-speed centrifugation at 1,000 rpm for 5 min.
as §3
The cell size of articular chondrocytes from the control and Aza-C treated cultures was analysed by flow cytometry on Day 14 after the Aza-C treatment. […] Cells (1×10^6) were then suspended in phosphate buffered saline and analysed immediately on a laser flow cytometer (EPICS Elite; Coulter, Hialeah, Fla.). […]

collagen type X gene [4] = experiment: RT-PCR, mRNA expression of collagen type X in alginate-bead human articular chondrocytes (NHAC-kn); conditions: p<0.01
Procedure: as §1
as §2, with “Md.). The alginate beads were cultured for 7 days at 37° C. in a humidified incubator with 5% CO2 and the culture medium was changed every 3 days.” for “Md.).”
as §3, §7
The thus-obtained PCR products (amplicons) were resolved by electrophoresis on a 1.4% agarose gel and visualised by ethidium bromide staining. The optical densities of the resolved bands were semi-quantified using a Bioimaging System (UVP Inc., Upland, Calif.). […] The optical intensity ratios of the PCR products to the 18S rRNA gene were calculated for comparison.

collagen type X gene [5] = experiment: Quantitative real-time PCR, mRNA expression of collagen type X in human articular chondrocytes (KMU-AC); conditions: normalized to GAPDH, control Day 3 = 100%, mean ± S.E.M.
Procedure: as §1, with “temperature. […]” for “temperature.”
as §3, §4
The thus-obtained PCR products (amplicons) were detected by the fluorescence of SYBR Green, the double stranded DNA binding dye (T. B. Morrison et al. (1998), Biotechniques, 24:954-958, 960, 962). […]

[6] = system: human articular chondrocytes; experiment: TUNEL assay, apoptotic rate of chondrocytes; conditions: Day 14 after 48 hr 15 μg/mL Aza-C; NHAC-kn; p<0.01
Procedure: as §8, §9, §3
Fragmented DNA of an apoptotic cell was TUNEL stained using an In Situ Cell Death Detection Kit, TMR red (Roche, Germany). […] Slides were observed on a fluorescence microscope with an excitation wavelengthof 580 nm for rhodamine and 365 nm for DAPI. […] Stained cells were counted in 5 microscopic fields for each slide. […]

collagen type II gene [7] = experiment: Quantitative real-time PCR, mRNA expression of collagen type II in human articular chondrocytes (KMU-AC); conditions: normalized to GAPDH, control Day 3 = 100%, mean ± S.E.M.
Procedure: as §1, §2, §3, §4, §5

[8] = Day 3 after 48 hr 15 μg/mL Aza-C
[9] = Day 7 after 48 hr 15 μg/mL Aza-C
[10] = Day 14 after 48 hr 15 μg/mL Aza-C
[11] = Day 7 after 48 hr treatment with 15 μg/ml Aza-C
[12] = Day 14 after 48 hr treatment with 15 μg/ml Aza-C

`Nc1ncn([C@@H]2O[C@H](CO)[C@@H](O)[C@H]2O)c(=O)n1` [Aza-C, 5-azacytidine] was tested, and the “Percentage change of mRNA expression of ALP by quantitative real-time PCR” value (ALP gene; [8]) was 175.8 ± 13.5%, the “Percentage change of mRNA expression of ALP by quantitative real-time PCR” value (ALP gene; [9]) was 31,900.0 ± 4.7 % and the “Percentage change of mRNA expression of ALP by quantitative real-time PCR” value (ALP gene; [10]) was 735.6 ± 3.2 %. For the same molecule, the “mRNA expression of collagen type II gene (RT-PCR, normalized to 18S rRNA) vs control group” value (collagen type II gene [1]; [11]) was “significantly decreased”, the “mRNA expression of collagen type II gene (RT-PCR, normalized to 18S rRNA) vs control group” value (collagen type II gene [1]; [12]) was “significantly decreased” and the “mRNA expression of ALP gene (RT-PCR, normalized to 18S rRNA) vs control group” value [2, 11] was “significantly increased”. The “mRNA expression of ALP gene (RT-PCR, normalized to 18S rRNA) vs control group” value [2, 12] was “significantly increased”, the “increase of cell size as compared to the control cultures” value [3] was 26% and the “cell size of articular chondrocytes (relative intensity in forward scatter)” value ([3]; mean ± SEM, control cultures 404.41±1.45, p<0.01) was 509.20±1.93. For the same molecule, the “mRNA expression of collagen type X gene (RT-PCR, normalized to 18S rRNA) vs control group” value (collagen type X gene [4]; Day 3 after 48 hr treatment with 15 μg/ml Aza-C) was “significantly increased”, the “mRNA expression of collagen type X gene (RT-PCR, normalized to 18S rRNA) vs control group” value (collagen type X gene [4]; [11]) was “significantly increased” and the “mRNA expression of collagen type X gene (RT-PCR, normalized to 18S rRNA) vs control group” value (collagen type X gene [4]; [12]) was “significantly increased”. The “Percentage change of mRNA expression of collagen type X by quantitative real-time PCR” value (collagen type X gene [5]; [8]) was 398.0 ± 26.3 %, the “Percentage change of mRNA expression of collagen type X by quantitative real-time PCR” value (collagen type X gene [5]; [10]) was 335.0 ± 1.4 % and the “apoptotic rate of articular chondrocytes (TUNEL stained / DAPI stained cells) vs control cultures” value [6] was “significantly increased”. For the same molecule, the “Percentage change of mRNA expression of collagen type II by quantitative real-time PCR” value (collagen type II gene [7]; [8]) was 7.3 ± 1.2 %, the “Percentage change of mRNA expression of collagen type II by quantitative real-time PCR” value (collagen type II gene [7]; [9]) was 1.0 ± 0.4 % and the “Percentage change of mRNA expression of collagen type II by quantitative real-time PCR” value (collagen type II gene [7]; [10]) was 3.0 ± 0.9 %.
